The test concerns the target Protein cereblon/Tyrosine-protein kinase JAK2 (Homo sapiens, UniProt O60674+Q96SW2). In words: PROTAC activity at CRBN/JAK2 in human MHHCALL4 cells assessed as protein degradation by immunoblot analysis. Format: cell-based. Background: A western blot detects proteins with antibodies after separation by electrophoresis.
Sequence of Protein cereblon/Tyrosine-protein kinase JAK2 (O60674 whole entry): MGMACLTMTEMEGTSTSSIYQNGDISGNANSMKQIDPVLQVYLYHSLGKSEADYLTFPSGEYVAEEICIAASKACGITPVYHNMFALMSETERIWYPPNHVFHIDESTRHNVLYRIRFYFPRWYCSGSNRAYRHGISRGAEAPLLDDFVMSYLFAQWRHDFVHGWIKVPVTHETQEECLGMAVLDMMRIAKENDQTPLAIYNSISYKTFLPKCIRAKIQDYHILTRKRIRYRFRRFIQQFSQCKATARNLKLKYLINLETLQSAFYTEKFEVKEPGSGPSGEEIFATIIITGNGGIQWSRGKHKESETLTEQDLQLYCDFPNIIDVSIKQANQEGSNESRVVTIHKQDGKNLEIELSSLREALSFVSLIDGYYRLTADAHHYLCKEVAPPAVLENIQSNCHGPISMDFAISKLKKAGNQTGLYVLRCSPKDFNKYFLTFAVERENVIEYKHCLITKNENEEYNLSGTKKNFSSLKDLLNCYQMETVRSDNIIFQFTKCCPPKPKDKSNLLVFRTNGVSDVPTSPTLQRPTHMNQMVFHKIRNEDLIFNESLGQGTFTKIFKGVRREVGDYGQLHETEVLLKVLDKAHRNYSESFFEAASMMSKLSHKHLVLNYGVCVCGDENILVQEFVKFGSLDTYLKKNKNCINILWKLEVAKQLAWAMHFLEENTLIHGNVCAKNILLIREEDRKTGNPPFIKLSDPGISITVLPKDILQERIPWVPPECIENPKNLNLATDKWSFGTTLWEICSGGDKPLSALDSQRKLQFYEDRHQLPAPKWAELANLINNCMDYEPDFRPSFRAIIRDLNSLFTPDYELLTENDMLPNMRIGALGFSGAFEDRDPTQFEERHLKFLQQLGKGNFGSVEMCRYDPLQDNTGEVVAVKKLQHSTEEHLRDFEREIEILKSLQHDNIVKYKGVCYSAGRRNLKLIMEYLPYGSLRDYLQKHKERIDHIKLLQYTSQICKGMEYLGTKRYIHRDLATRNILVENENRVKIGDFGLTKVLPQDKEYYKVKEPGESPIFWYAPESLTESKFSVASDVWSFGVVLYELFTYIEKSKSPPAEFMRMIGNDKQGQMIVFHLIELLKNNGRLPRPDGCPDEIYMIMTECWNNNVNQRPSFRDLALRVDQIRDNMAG
Sequence of Protein cereblon/Tyrosine-protein kinase JAK2 (Q96SW2 whole entry): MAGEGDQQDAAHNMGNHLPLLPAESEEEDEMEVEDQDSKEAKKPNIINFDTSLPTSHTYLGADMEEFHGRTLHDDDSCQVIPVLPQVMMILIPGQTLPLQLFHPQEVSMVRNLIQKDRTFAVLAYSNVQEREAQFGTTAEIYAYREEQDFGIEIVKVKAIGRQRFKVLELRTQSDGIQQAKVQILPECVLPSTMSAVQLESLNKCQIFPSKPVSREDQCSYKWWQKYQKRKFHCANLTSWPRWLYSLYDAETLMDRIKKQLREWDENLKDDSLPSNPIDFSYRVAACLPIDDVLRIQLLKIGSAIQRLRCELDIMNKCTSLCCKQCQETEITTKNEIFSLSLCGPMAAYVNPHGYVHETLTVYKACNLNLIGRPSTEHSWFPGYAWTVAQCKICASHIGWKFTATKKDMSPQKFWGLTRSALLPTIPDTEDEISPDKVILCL
The term EC50 denotes the concentration needed to bring the measured effect to its halfway point. As to `CCCn1cc(-c2nc(Nc3ccc(C(=O)NCCCCNc4cccc5c4C(=O)N(C4CCC(=O)NC4=O)C5=O)cc3)nc3[nH]ccc23)cn1` (stereo not drawn), the EC50 amounted to 0.2 nM. In the case of `CCCn1cc(-c2nc(Nc3ccc(C(=O)NCCOCCOCCOCCOCCNc4cccc5c4C(=O)N(C4CCC(=O)NC4=O)C5=O)cc3)nc3[nH]ccc23)cn1` (stereo not drawn), the EC50 was found to be 2300 nM. For `CCCn1cc(-c2nc(Nc3ccc(C(=O)NCCOCCOCCOCCOCCOCCNc4cccc5c4C(=O)N(C4CCC(=O)NC4=O)C5=O)cc3)nc3[nH]ccc23)cn1` (stereo not drawn) the value was 1100 nM; for `CCCn1cc(-c2nc(Nc3ccc(C(=O)NCCOCCOCCOCCOCCOCCOCCNc4cccc5c4C(=O)N(C4CCC(=O)NC4=O)C5=O)cc3)nc3[nH]ccc23)cn1` (stereo not drawn), 720 nM. With `N#CC[C@H](C1CCCC1)n1cc(-c2nc(Nc3ccc(C(=O)NCCCCNc4cccc5c4C(=O)N(C4CCC(=O)NC4=O)C5=O)cc3)nc3[nH]ccc23)cn1` (stereo partly drawn) the figure was 3.9 nM. For `CCCn1cc(-c2nc(Nc3ccc(C(=O)NCCCCCNc4cccc5c4C(=O)N(C4CCC(=O)NC4=O)C5=O)cc3)nc3[nH]ccc23)cn1` (stereo not drawn) the value was 0.9 nM; for `CCCn1cc(-c2nc(Nc3ccc(C(=O)NCCCNc4cccc5c4C(=O)N(C4CCC(=O)NC4=O)C5=O)cc3)nc3[nH]ccc23)cn1` (stereo not drawn), 0.5 nM. Consider `CCCn1cc(-c2nc(Nc3ccc(C(=O)NCCCCCNc4cccc5c4CN(C4CCC(=O)NC4=O)C5=O)cc3)nc3[nH]ccc23)cn1` (stereo not drawn), for which the EC50 was determined as 0.5 nM.

For the origin of these results see ChEMBL document CHEMBL4706764, “PROTAC-Mediated Degradation of Janus Kinase as a Therapeutic Strategy for Cancer and Rheumatoid Arthritis” (ACS Med Chem Lett, 2021).
